Data from PMC12809571, “Contribution to the Chemotherapy of Human Trypanosomiasis: Design, Synthesis, and Biological Evaluation of Dimeric 2‑Nitroimidazoles against Trypanosoma cruzi Amastigotes and Bloodstream Trypanosoma brucei” (ACS Omega, 2025).
Read-outs that look alike come from different tables or passages of the source.

Experiments:
[1] = test system: amastigotes of T. cruzi (Tulahuen C2C4 LacZ strain); assay: Trypanocidal activity against T. cruzi amastigotes (CPRG, infected LLC-MK2); format: cell-based, Trypanosoma cruzi; conditions: intracellular amastigotes in LLC-MK2, 120 h; for IC50: Trypanosoma cruzi, TULAHUEN, read-out: Activity against Amastigotes of T. cruzi (Tulahuen C2C4lacZ) IC50
Experimental: The antiparasitic activity assays used amastigotes of the Tulahuen C2C4-LacZ strain of T. cruzi. Amastigotes and trypomastigotes were cultured by successive reinfections in LLC-MK2 cell monolayers in DMEM supplemented with 5% FBS and incubated at 37 °C with 5% CO2. Trypomastigotes were collected from the culture supernatant between days 5 and 10 after infection and separated from nonadhered cells by differential centrifugation.
In a flat 96-well plate, a suspension of 1 × 10^4 LLC-MK2 cells (ATCC) in DMEM supplemented with 2% FBS was added. Cells were incubated at 37 °C with 5% CO2 for 4 h to promote adhesion, then washed with PBS to remove nonadherent cells. A suspension containing 1.5 × 10^5 T. cruzi trypomastigote forms of the Tulahuen C2C4 LacZ strain was added to the cells, followed by incubation at 37 °C with 5% CO2 for 20 h to establish infection. Noninternalized parasites were removed with three successive PBS washes, then treatment with serial dilutions (50–0.08 μM) of compounds in triplicate, prediluted in DMEM with 2% FBS. Controls included untreated cells, vehicle (0.2% v/v DMSO), and blank (no parasite added). Benznidazole, in serial dilutions, served as a positive control. After 5 days (120 h), 30 μL of a 0.5 mM CPRG solution in PBS was added along with 0.9% v/v Igepal CA-630. After a 2h incubation, absorbance was measured at 570 nm using a plate reader.

[2] = Cytotoxicity against LLC-MK2 cells (MTT); format: cell-based; conditions: rhesus monkey
Experimental: (§1) Mammalian lineage cells were used to assess the cytotoxicity of the tested compounds. LLC-MK2, HEK-293, and RAW-264 cells (ATCC) were cultured in Dulbecco’s Modified Eagle’s Medium (DMEM) supplemented with 5% fetal bovine serum (FBS) and incubated at 37 °C in 5% CO2, with passages every 4–5 days. Cells were detached from the monolayer using a solution containing 0.25% w/v trypsin and 0.04% EDTA.
In a flat 96-well plate, a suspension of 1 × 10^4 LLC-MK2 cells (ATCC) in DMEM supplemented with 2% FBS was added. Cells were incubated at 37 °C (5% CO2) for 20 h, then washed with phosphate-buffered saline (PBS) to remove nonadherent cells. Cells were treated with serial dilutions (200–2 μM) of compounds in triplicate, prediluted in DMEM with 2% FBS. Untreated, vehicle (0.2% v/v DMSO), and blank (no cells added) controls were included. After 120 h of incubation, the supernatant was removed, the cell monolayer washed with PBS, and the culture medium refreshed. Then, 20 μL of a 3.0 mM MTT salt solution was added, followed by two additional hours of incubation. The supernatant was removed again, and the MTT formazan crystals were dissolved by adding 120 μL of DMSO per well. After 1.5 h of dark incubation at 37 °C to dissolve the crystals, the absorbance was measured at 570 nm using a plate reader.

[3] = test system: amastigotes of T. cruzi (Tulahuen C2C4 LacZ strain); assay: Trypanocidal activity against T. cruzi amastigotes (CPRG, infected LLC-MK2); format: cell-based, Trypanosoma cruzi
Chagas disease = conditions: chronic phase of Chagas disease; cited from earlier work
[4] = test system: bloodstream trypomastigotes of T. b. brucei; assay: Trypanocidal activity against T. brucei brucei bloodstream (MTS); format: cell-based, Trypanosoma brucei brucei
Experimental: In a transparent 96-well plate, the parasites were incubated for 48 h at a concentration of 5 × 10^4 parasites per well, for 24 h, a concentration of 10 × 10^5 parasites per well was used in Hirumi’s Modified Iscove’s (HMI-9) medium supplemented with 10% FBS and a final 100 μL/well volume. Treatment was carried out using serial dilutions of the compounds (100–0.02 μM) and fexinidazole as the reference drug, both in triplicate. Triplicates of untreated parasites (live control), parasites treated with DMSO 0.2% v/v (vehicle), and wells without parasites (blank control) served as experimental controls. After incubation, 20 μL of MTS solution (5% PMS) was added, and the sample was incubated for another 2 h. Once the plate was visibly stained–due to the soluble formazan salt produced by the action of viable parasites from the reduction of MTS–the absorbance was measured at 490 nm using a plate reader.

RAW-264.7 cells = assay: Cytotoxicity against RAW-264.7 cells (MTT); format: cell-based
Experimental: as §1
In a 96-well transparent plate, a suspension of 1 × 10^4 RAW-264.7 cells (ATCC) in Roswell Park Memorial Institute (RPMI) medium supplemented with 10% FBS was added. Cells were incubated at 37 °C (5% CO2) for 20 h, then washed with PBS to remove nonadherent cells. Cells were treated with serial dilutions of the hybrids in triplicate (125–0.2 μM), prediluted in RPMI supplemented with 10% FBS. Controls included untreated samples, vehicle (0.2% v/v DMSO), and blank wells (no cells). […] Then, 20 μL of 3.0 mM MTT saline was added, followed by an additional 1.5 h of incubation. The supernatant was removed again, and the MTT formazan crystals were dissolved by adding 120 μL of DMSO per well. After incubating for 1.5 h in the dark at 37 °C to dissolve the crystals, absorbance was measured at 570 nm using a plate reader.

HEK-293 cells = assay: Cytotoxicity against HEK-293 cells (MTT); format: cell-based
Experimental: as §1
In a 96-well transparent plate, a suspension of 1 × 10^4 HEK-293 cells (ATCC) in DMEM medium supplemented with 10% FBS was added. Cells were incubated at 37 °C (5% CO2) for 20 h and then washed with PBS to remove nonadherent cells. The cells were treated with serial dilutions of the hybrids in triplicate (125–0.2 μM), prediluted in DMEM containing 10% FBS. The experiment included untreated controls, vehicle (0.2% v/v DMSO), and a blank (no added cells). […] Then, 20 μL of 3.0 mM MTT saline was added, followed by an additional 1.5 h of incubation. The supernatant was removed, and the MTT formazan crystals were dissolved by adding 120 μL of DMSO per well. After incubating for 1.5 h in the dark at 37 °C, the absorbance was measured at 570 nm using a plate reader.

[5] = Trypanosoma brucei, 48 h, read-out: T. b. brucei 48 h IC50
[6] = Mus musculus, RAW264.7, 48 h, read-out: RAW-264.7 48 h IC50
[7] = Homo sapiens, HEK293, 48 h, read-out: HEK-293 48 h IC50
[8] = Trypanosoma brucei, 48 h; read-out: T. b. brucei 48 h IC50
[9] = Mus musculus, RAW264.7, 48 h; read-out: RAW-264.7 48 h IC50
[10] = Homo sapiens, HEK293, 48 h; read-out: HEK-293 48 h IC50

Compound | IC50 [1] [µM] | IC50 at 120 h [2] [µM] | SI (LLC-MK2) = (IC50 LLC-MK2)/(IC50 T. cruzi) [3] | cure rate (Chagas disease) | IC50 at 120 h ([2]; LLC-MK2 cells) [µM] | SI (HEK-293) = (IC50 HEK-293)/(IC50 T. brucei brucei) [4] | SI (RAW-264.7) = (IC50 RAW-264.7)/(IC50 T. brucei brucei) [4] | IC50 [4, 5] [µM] | IC50 (RAW-264.7 cells; [6]) [µM] | IC50 (HEK-293 cells; [7]) [µM] | IC50 [4, 8] [µM] | IC50 (RAW-264.7 cells; [9]) [µM] | IC50 (HEK-293 cells; [10]) [µM] | Activity against Amastigotes of T. cruzi (Tulahuen C2C4lacZ) IC50 [1]
O=[N+]([O-])c1ncc[nH]1 [Azomycin (3), 2-nitro-1H-imidazole, reference compound] | 5.74 ± 1.89 | > 500 | >87.10 | – | – | – | – | – | – | – | – | – | – | –
O=C(Cn1ccnc1[N+](=O)[O-])NCc1ccccc1 [Benznidazole, benznidazole, reference compound] | 1.5 ± 0.33 | – | >133.33 | less than 20% | > 200 | – | – | – | – | – | – | – | – | –
O=[N+]([O-])c1nccn1CCn1ccnc1[N+](=O)[O-] [Compound 4, 1,2-Bis(2-nitro-1H-imidazol-1-yl)ethane] | 9.13 ± 0.93 | > 200 | >21.90 | – | – | >5.83 | >5.83 | 21.4 ± 1.15 | > 125 | > 125 | – | – | – | –
O=[N+]([O-])c1nccn1CCCn1ccnc1[N+](=O)[O-] [Compound 5, 1,3-Bis(2-nitro-1H-imidazol-1-yl)propane] | 3.2 ± 0.58 | > 200 | >62.50 | – | – | – | – | 16.4 ± 2.65 | > 125 | > 125 | – | – | – | –
O=[N+]([O-])c1nccn1CCCCn1ccnc1[N+](=O)[O-] [Compound 6, 1,4-Bis(2-nitro-1H-imidazol-1-yl)butane] | 2.66 ± 0.78 | > 200 | >75.18 | – | – | >5.02 | >5.02 | – | – | – | 24.9 ± 7.89 | > 125 | > 125 | –
O=[N+]([O-])c1nccn1CCCCCn1ccnc1[N+](=O)[O-] [Compound 7, 1,5-Bis(2-nitro-1H-imidazol-1-yl)pentane] | 1.38 ± 0.24 | > 200 | >144.9 | – | – | >12.42 | >12.42 | – | – | – | 10.1 ± 2.47 | > 125 | > 125 | –
O=[N+]([O-])c1nccn1CCCCCCn1ccnc1[N+](=O)[O-] [Compound 8, 1,6-Bis(2-nitro-1H-imidazol-1-yl)hexane] | 0.59 ± 0.01 | > 200 | >338.98 | – | – | 16.27 | >23.27 | – | – | – | 5.37 ± 3.15 | > 125 | 87.4 ± 1.2 | submicromolar range
O=[N+]([O-])c1nccn1CCCCCCCCn1ccnc1[N+](=O)[O-] [Compound 9, 1,8-Bis(2-nitro-1H-imidazol-1-yl)octane] | 1.19 ± 0.31 | > 100 | >84.03 | – | – | 2.79 | 8.98 | – | – | – | 7.98 ± 3.12 | 71.7 ± 3.67 | 22.3 ± 1.08 | –
O=[N+]([O-])c1nccn1CCCCCCCCCCn1ccnc1[N+](=O)[O-] [Compound 10, 1,10-Bis(2-nitro-1H-imidazol-1-yl)decane] | 0.48 ± 0.11 | > 100 | >208.33 | – | – | 1.67 | 4.67 | – | – | – | 21 ± 1.9 | 98.4 ± 9.39 | 35.1 ± 5.31 | submicromolar range
O=[N+]([O-])c1nccn1CCCCCCCCCCCCn1ccnc1[N+](=O)[O-] [Compound 11, 1,12-Bis(2-nitro-1H-imidazol-1-yl)dodecane] | 0.61 ± 0.13 | 52.4 ± 4.13 | 85.88 | – | – | 57.01 | >69.83 | – | – | – | 1.79 ± 0.63 | > 125 | 102 ± 8.54 | submicromolar range
CSc1ccc(OCc2ncc([N+](=O)[O-])n2C)cc1 [Fexinidazole, fexinidazole, reference compound] | – | – | – | – | – | – | – | – | – | – | 1.2 ± 0.51 | – | – | –
CC1CS(=O)(=O)CCN1/N=C/c1ccc([N+](=O)[O-])o1 (centres unmarked) [nifurtimox] | – | – | – | less than 20% | – | – | – | – | – | – | – | – | – | –
